Assay results published in patent US9682995B2, “Amino-substituted isothiazoles” (BAYER PHARMA AKTIENGESELLSCHAFT, priority 2013, dated 2017).

Experiments:
Assay in all cases: Kinase Profiling (KINOMEscan)
Assay type in all cases: binding
[1] = biological target: 456 kinases (of these 395 non-mutant kinases) (Homo sapiens, UniProt P42336); conditions: PIK3CA; 10 μM
[2] = biological target: 456 kinases (of these 395 non-mutant kinases) (Homo sapiens, UniProt Q9Y2U5); conditions: MAP3K2; 10 μM
[3] = biological target: 456 kinases (of these 395 non-mutant kinases) (Homo sapiens, UniProt Q86V86); conditions: PIM3; 10 μM
[4] = biological target: 456 kinases (of these 395 non-mutant kinases) (Homo sapiens, UniProt P78356); conditions: PIP5K2B; 10 μM
[5] = biological target: 456 kinases (of these 395 non-mutant kinases) (Homo sapiens, UniProt P06213); conditions: INSR; 10 μM
[6] = biological target: 456 kinases (of these 395 non-mutant kinases) (Homo sapiens, UniProt P15735); conditions: PHKG2; 10 μM
[7] = biological target: 456 kinases (of these 395 non-mutant kinases) (Homo sapiens, UniProt P48729); conditions: CSNK1A1; 10 μM
[8] = biological target: 456 kinases (of these 395 non-mutant kinases) (Homo sapiens, UniProt P23458); conditions: 10 μM
[9] = biological target: 456 kinases (of these 395 non-mutant kinases) (Homo sapiens, UniProt O75460); conditions: ERN1; 10 μM
[10] = biological target: 456 kinases (of these 395 non-mutant kinases) (Homo sapiens, UniProt P48730); conditions: CSNK1D; 10 μM
[11] = biological target: 456 kinases (of these 395 non-mutant kinases) (Homo sapiens, UniProt Q8TD19); conditions: NEK9; 10 μM
[12] = biological target: 456 kinases (of these 395 non-mutant kinases) (Homo sapiens, UniProt P0C264); conditions: SgK110; 10 μM
[13] = biological target: 456 kinases (of these 395 non-mutant kinases) (Homo sapiens, UniProt P00533, L861Q); conditions: EGFR(L861Q); 10 μM
[14] = biological target: 456 kinases (of these 395 non-mutant kinases) (Homo sapiens, UniProt P51617); conditions: IRAKI; 10 μM
[15] = biological target: 456 kinases (of these 395 non-mutant kinases) (Homo sapiens, UniProt P09619); conditions: PDGFRB; 10 μM
[16] = biological target: 456 kinases (of these 395 non-mutant kinases) (Homo sapiens, UniProt Q9BRS2); conditions: RIOK1; 10 μM
[17] = biological target: 456 kinases (of these 395 non-mutant kinases) (Homo sapiens, UniProt Q8NEV4); conditions: MYO3A; 10 μM
[18] = biological target: 456 kinases (of these 395 non-mutant kinases) (Homo sapiens, UniProt Q9UM73); conditions: ALK; 10 μM
[19] = biological target: 456 kinases (of these 395 non-mutant kinases) (Homo sapiens, UniProt P51812); conditions: 10 μM
[20] = biological target: 456 kinases (of these 395 non-mutant kinases) (Homo sapiens, UniProt Q99759); conditions: MAP3K3; 10 μM
[21] = biological target: 456 kinases (of these 395 non-mutant kinases) (Homo sapiens, UniProt P29376); conditions: LTK; 10 μM
[22] = biological target: 456 kinases (of these 395 non-mutant kinases) (Homo sapiens, UniProt P42336, C420R); conditions: PIK3CA(C420R); 10 μM
[23] = biological target: 456 kinases (of these 395 non-mutant kinases) (Homo sapiens, UniProt Q8NI60); conditions: ADCK3; 10 μM
[24] = biological target: 456 kinases (of these 395 non-mutant kinases) (Homo sapiens, UniProt Q13043); conditions: MST1; 10 μM
[25] = biological target: 456 kinases (of these 395 non-mutant kinases) (Homo sapiens, UniProt Q9Y243); conditions: AKT3; 10 μM
[26] = biological target: 456 kinases (of these 395 non-mutant kinases) (Homo sapiens, UniProt Q9UKE5); conditions: TNIK; 10 μM
[27] = biological target: 456 kinases (of these 395 non-mutant kinases) (Homo sapiens, UniProt P51451); conditions: BLK; 10 μM
[28] = biological target: 456 kinases (of these 395 non-mutant kinases) (Homo sapiens, UniProt P54646); conditions: AMPK-alpha2; 10 μM
[29] = biological target: 456 kinases (of these 395 non-mutant kinases) (Homo sapiens, UniProt Q16539); conditions: p38-alpha; 10 μM
[30] = biological target: 456 kinases (of these 395 non-mutant kinases) (Homo sapiens, UniProt Q08345); conditions: DDR1; 10 μM
[31] = biological target: 456 kinases (of these 395 non-mutant kinases) (Homo sapiens, UniProt Q8WXR4); conditions: MYO3B; 10 μM
[32] = biological target: 456 kinases (of these 395 non-mutant kinases) (Homo sapiens, UniProt Q9UF33); conditions: EPHA6; 10 μM

Chain of 456 kinases (of these 395 non-mutant kinases) (Homo sapiens, UniProt P51451) (P51451 2-505 limits assumed, change not shown): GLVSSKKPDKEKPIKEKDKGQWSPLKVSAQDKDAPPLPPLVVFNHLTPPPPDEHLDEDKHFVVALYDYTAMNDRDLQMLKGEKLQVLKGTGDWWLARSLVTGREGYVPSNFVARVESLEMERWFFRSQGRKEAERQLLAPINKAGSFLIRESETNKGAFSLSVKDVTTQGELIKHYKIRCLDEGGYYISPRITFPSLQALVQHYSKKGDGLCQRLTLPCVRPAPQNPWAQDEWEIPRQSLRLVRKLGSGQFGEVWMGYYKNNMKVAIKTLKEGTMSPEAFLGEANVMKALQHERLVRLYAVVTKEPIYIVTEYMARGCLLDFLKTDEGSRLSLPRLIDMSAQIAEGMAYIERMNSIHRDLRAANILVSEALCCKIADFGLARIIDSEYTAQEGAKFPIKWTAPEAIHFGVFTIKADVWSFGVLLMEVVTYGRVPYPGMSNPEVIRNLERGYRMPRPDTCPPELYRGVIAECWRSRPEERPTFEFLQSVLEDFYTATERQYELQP
Chain of 456 kinases (of these 395 non-mutant kinases) (Homo sapiens, UniProt P48729) (P48729 2-337 limits assumed, change not shown): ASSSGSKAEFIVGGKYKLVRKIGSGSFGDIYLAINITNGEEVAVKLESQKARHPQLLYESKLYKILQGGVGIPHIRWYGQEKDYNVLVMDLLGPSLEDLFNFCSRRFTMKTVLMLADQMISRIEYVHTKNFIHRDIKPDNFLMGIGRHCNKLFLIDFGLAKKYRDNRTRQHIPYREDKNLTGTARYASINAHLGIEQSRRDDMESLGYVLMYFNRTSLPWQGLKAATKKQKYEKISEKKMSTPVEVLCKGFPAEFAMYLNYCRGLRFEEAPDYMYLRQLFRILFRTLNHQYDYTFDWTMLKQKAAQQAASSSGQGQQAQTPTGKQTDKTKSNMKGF
Chain of 456 kinases (of these 395 non-mutant kinases) (Homo sapiens, UniProt Q08345) (Q08345 19-913 limits assumed, change not shown): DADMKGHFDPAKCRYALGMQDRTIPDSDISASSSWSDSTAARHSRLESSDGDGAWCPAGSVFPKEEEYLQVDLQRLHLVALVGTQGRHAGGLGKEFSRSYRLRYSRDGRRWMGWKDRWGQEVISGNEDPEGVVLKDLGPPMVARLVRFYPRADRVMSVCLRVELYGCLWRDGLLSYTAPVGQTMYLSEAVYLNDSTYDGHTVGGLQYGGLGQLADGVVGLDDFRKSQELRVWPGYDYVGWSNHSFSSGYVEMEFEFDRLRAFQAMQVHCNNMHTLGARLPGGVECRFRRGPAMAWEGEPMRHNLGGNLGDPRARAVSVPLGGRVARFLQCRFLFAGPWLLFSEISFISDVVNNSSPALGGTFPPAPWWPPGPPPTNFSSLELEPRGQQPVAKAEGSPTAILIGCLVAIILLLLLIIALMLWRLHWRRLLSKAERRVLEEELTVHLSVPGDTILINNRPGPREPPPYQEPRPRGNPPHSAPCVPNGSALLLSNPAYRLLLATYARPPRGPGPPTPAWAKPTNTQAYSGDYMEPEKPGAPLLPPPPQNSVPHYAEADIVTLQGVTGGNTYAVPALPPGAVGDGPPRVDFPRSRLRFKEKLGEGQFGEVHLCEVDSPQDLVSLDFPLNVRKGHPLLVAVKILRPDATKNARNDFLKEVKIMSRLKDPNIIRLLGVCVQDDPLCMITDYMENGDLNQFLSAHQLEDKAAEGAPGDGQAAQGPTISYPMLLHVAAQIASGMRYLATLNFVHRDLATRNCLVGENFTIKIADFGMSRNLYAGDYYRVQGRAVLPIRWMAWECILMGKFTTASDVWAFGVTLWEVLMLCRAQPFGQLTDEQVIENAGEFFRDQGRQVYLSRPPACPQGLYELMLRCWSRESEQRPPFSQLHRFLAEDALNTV
Chain of 456 kinases (of these 395 non-mutant kinases) (Homo sapiens, UniProt P09619) (P09619 33-1106 limits assumed, change not shown): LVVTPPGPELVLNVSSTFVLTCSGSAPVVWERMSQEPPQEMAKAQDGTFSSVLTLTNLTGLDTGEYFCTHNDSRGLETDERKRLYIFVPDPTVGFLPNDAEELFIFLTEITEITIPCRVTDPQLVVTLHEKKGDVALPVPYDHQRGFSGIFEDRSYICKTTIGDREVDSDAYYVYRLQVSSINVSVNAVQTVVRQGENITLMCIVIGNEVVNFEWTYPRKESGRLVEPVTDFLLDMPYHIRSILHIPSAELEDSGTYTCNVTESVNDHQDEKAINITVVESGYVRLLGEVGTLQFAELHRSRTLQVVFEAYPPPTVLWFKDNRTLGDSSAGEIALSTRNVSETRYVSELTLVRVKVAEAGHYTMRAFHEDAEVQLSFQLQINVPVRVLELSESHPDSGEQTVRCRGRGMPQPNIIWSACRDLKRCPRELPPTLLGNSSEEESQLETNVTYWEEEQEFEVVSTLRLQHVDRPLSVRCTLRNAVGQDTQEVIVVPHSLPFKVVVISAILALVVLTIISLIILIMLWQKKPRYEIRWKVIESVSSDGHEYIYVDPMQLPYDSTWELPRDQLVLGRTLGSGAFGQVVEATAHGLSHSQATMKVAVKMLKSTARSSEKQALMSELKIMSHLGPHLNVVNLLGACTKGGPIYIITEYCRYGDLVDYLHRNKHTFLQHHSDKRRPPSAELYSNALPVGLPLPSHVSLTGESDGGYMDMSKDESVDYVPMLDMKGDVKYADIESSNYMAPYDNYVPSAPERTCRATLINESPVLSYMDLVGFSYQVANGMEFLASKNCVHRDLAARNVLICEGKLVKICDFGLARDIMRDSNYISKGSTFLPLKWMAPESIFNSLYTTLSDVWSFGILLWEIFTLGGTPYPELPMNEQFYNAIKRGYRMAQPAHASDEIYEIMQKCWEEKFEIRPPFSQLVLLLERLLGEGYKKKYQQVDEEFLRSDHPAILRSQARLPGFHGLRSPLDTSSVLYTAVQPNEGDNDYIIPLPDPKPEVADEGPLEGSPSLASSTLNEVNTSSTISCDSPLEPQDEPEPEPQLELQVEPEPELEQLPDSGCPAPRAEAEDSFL
Chain of 456 kinases (of these 395 non-mutant kinases) (Homo sapiens, UniProt Q8TD19) (Q8TD19 2-979 limits assumed, change not shown): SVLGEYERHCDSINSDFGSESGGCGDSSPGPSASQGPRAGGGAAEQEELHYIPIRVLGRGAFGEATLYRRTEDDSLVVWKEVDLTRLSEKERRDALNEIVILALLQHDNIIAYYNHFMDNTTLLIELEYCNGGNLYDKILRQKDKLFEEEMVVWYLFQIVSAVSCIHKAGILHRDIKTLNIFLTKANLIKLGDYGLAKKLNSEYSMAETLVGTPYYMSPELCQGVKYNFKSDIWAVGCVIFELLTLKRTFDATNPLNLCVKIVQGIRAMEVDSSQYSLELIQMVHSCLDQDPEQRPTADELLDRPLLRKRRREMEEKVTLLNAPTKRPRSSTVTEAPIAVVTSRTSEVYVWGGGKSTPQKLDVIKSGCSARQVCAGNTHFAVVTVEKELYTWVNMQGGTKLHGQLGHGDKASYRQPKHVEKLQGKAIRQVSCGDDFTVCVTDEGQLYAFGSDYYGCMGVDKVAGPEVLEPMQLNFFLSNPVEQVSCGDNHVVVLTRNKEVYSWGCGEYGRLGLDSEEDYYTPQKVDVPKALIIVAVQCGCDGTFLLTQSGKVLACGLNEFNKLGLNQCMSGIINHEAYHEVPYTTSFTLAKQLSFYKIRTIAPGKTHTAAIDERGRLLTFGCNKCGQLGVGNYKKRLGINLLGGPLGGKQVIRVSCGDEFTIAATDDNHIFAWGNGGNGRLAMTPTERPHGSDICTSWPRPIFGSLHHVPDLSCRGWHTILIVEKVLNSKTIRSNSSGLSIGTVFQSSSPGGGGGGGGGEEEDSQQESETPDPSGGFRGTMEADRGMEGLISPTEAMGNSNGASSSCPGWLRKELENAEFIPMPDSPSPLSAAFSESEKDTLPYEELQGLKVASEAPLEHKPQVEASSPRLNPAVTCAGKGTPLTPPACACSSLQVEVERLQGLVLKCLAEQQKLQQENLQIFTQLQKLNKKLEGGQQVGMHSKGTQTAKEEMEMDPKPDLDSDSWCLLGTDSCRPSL
Chain of 456 kinases (of these 395 non-mutant kinases) (Homo sapiens, UniProt O75460) (O75460 19-977 limits assumed, change not shown): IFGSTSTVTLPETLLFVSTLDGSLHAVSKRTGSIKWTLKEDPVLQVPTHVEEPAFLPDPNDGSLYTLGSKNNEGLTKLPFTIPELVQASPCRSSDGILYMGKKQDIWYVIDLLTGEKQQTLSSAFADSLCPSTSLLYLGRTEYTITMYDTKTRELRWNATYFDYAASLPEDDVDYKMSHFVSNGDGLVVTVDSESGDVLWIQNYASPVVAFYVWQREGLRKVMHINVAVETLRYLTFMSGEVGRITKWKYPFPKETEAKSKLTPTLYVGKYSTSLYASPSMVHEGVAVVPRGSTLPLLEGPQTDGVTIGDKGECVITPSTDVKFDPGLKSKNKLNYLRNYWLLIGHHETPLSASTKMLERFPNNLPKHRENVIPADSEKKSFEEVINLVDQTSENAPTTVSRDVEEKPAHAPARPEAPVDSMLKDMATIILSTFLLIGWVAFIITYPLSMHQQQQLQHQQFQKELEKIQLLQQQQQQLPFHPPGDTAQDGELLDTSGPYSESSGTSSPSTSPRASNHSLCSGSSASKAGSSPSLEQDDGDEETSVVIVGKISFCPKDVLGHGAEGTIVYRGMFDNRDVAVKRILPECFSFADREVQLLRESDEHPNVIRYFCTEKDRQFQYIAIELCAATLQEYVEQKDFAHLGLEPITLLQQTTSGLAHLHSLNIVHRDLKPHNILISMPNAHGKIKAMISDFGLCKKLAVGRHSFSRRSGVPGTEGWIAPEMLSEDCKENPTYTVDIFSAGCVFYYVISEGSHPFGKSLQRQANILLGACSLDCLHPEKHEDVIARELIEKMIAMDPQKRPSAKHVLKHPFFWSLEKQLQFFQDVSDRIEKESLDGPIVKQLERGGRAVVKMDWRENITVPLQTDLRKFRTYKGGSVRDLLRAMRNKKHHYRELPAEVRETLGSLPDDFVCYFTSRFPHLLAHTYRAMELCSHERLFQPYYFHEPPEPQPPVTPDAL

## CCc1ccccc1NC(=O)c1c(C)nsc1Nc1cnc2cc(F)ccc2n1 [Example 20, N-(2-Ethylphenyl)-5-[(6-fluoroquinoxalin-2-yl)amino]-3-methyl-1,2-thiazole-4-carboxamide]
[1]
  % Ctrl @ 10 μM: 100 % Ctrl
[2]
  % Ctrl @ 10 μM: 100 % Ctrl
[3]
  % Ctrl @ 10 μM: 100 % Ctrl
[4]
  % Ctrl @ 10 μM: 86 % Ctrl
[5]
  % Ctrl @ 10 μM: 98 % Ctrl
[6]
  % Ctrl @ 10 μM: 99 % Ctrl
[7]
  % Ctrl @ 10 μM: 92 % Ctrl
[8]; JAK1(JH1domain-catalytic)
  % Ctrl @ 10 μM: 100 % Ctrl
[8]; JAK1(JH2domain-pseudokinase)
  % Ctrl @ 10 μM: 71 % Ctrl
[9]
  % Ctrl @ 10 μM: 100 % Ctrl
[10]
  % Ctrl @ 10 μM: 86 % Ctrl
[11]
  % Ctrl @ 10 μM: 78 % Ctrl
[12]
  % Ctrl @ 10 μM: 100 % Ctrl
[13]
  % Ctrl @ 10 μM: 100 % Ctrl
[14]
  % Ctrl @ 10 μM: 100 % Ctrl
[15]
  % Ctrl @ 10 μM: 89 % Ctrl
[16]
  % Ctrl @ 10 μM: 100 % Ctrl
[17]
  % Ctrl @ 10 μM: 86 % Ctrl
[18]
  % Ctrl @ 10 μM: 77 % Ctrl
[19]; RSK2(Kin.Dom.1-N-terminal)
  % Ctrl @ 10 μM: 100 % Ctrl
[19]; RSK2(Kin.Dom.2-C-terminal)
  % Ctrl @ 10 μM: 100 % Ctrl
[20]
  % Ctrl @ 10 μM: 100 % Ctrl
[21]
  % Ctrl @ 10 μM: 68 % Ctrl
[22]
  % Ctrl @ 10 μM: 96 % Ctrl
[23]
  % Ctrl @ 10 μM: 64 % Ctrl
[24]
  % Ctrl @ 10 μM: 79 % Ctrl
[25]
  % Ctrl @ 10 μM: 100 % Ctrl
[26]
  % Ctrl @ 10 μM: 100 % Ctrl
[27]
  % Ctrl @ 10 μM: 100 % Ctrl
[28]
  % Ctrl @ 10 μM: 100 % Ctrl
[29]
  % Ctrl @ 10 μM: 90 % Ctrl
[30]
  % Ctrl @ 10 μM: 77 % Ctrl
[31]
  % Ctrl @ 10 μM: 100 % Ctrl
[32]
  % Ctrl @ 10 μM: 85 % Ctrl
